Assay: Human HepG2 cell viability assay in 384 well format
Type: toxicity, cell-based
Set-up: dose 125 nL, time 70.5 hour; concentration not given beside the values
Conditions: HepG2 cells, read-out: Inhibition

## COc1c(CNC2CCc3cc(Cl)ccc32)c(C)nn1C (stereo not given)
  cytotoxicity at 70.5 h: -3.82%

## COc1c(CNC2CCc3cc(C)ccc32)c(C)nn1C (stereo not given)
  cytotoxicity at 70.5 h: -1.11%

## CC(C)(C)c1cc(NC(=O)CN2CCCC2Cn2cccn2)on1 (stereo not given)
  cytotoxicity at 70.5 h: 1.91%

## O=C(c1ccc2c(c1)COC2)N1CCCN(Cc2cscn2)CC1
  cytotoxicity at 70.5 h: 1.09%

## CN(Cc1noc(C2CC2)n1)C1CCN(CCc2cccs2)C1 (stereo not given)
  cytotoxicity at 70.5 h: -2.4%

## CCN(Cc1cccc2c1OCO2)C(=O)NCCOC
  cytotoxicity at 70.5 h: 3.33%

## Cc1cc(CN2CCCC(Cn3cncn3)C2)on1 (stereo not given)
  cytotoxicity at 70.5 h: -3.16%

## O=C(c1ccc2cc[nH]c2c1)N1CCCN(Cc2cscn2)CC1
  cytotoxicity at 70.5 h: -2.03%

## CCC(O)CN1CCN(C(=O)c2sccc2C(C)C)CC1 (stereo not given)
  cytotoxicity at 70.5 h: -7.94%

## O=S(=O)(CCN1CCCCC1Cn1cncn1)c1ccccc1 (stereo not given)
  cytotoxicity at 70.5 h: 27.2%

## COCCc1noc(CN2CC(n3nc(C)cc3C)C2)n1
  cytotoxicity at 70.5 h: 4.95%

## CCCc1noc(CN2CCC(N(C)Cc3nnc(C4CC4)o3)C2)n1 (stereo not given)
  cytotoxicity at 70.5 h: 4.17%

## O=S(=O)(CCCNC1CCc2ncnn2C1)c1ccccc1 (stereo not given)
  cytotoxicity at 70.5 h: 23.5%

## CCCc1nc(C)c(C(=O)NCCN2CCCCC2)s1
  cytotoxicity at 70.5 h: -1.37%

## CCN1CCN(CCNC(=O)c2sc(C)nc2C)CC1
  cytotoxicity at 70.5 h: -5.81%

## COCCc1noc(CN2CCOC(Cn3cc(C)cn3)C2)n1 (stereo not given)
  cytotoxicity at 70.5 h: 0.177%

## CCc1nc(C)c(C(=O)NCCN2CCCC2)s1
  cytotoxicity at 70.5 h: -5.7%

## Cc1ccccc1CN(C)C(=O)CN1CCOC(Cn2cccn2)C1 (stereo not given)
  cytotoxicity at 70.5 h: 3.04%

## Cc1cc(C)n(CC2CN(Cc3nc(C)c(C)o3)CCO2)n1 (stereo not given)
  cytotoxicity at 70.5 h: -5.6%

## CC(C)COCC(NC(=O)c1cccnc1)c1ccco1 (stereo not given)
  cytotoxicity at 70.5 h: -9.01%

## CC(C)COCC(NC(=O)c1cc[nH]n1)c1ccco1 (stereo not given)
  cytotoxicity at 70.5 h: 4.11%

## Cc1ccc(CNC(=O)NCCCn2nc3ccccn3c2=O)s1
  cytotoxicity at 70.5 h: 30.2%

## Cc1cc(C)n(CC2CCCN2CC(=O)N(C)Cc2cnn(C)c2)n1 (stereo not given)
  cytotoxicity at 70.5 h: -9.95%

## Cc1nccn1C1CCCN(C(=O)c2ccc3c(c2)NC(=O)CO3)C1 (stereo not given)
  cytotoxicity at 70.5 h: -5.24%

## Cc1cc(C(=O)N2CCCC2Cn2nc(C)cc2C)on1 (stereo not given)
  cytotoxicity at 70.5 h: 1.85%

## CC(=O)Nc1ccc(S(=O)(=O)NC(=O)CCC2CCCO2)cc1 (stereo not given)
  cytotoxicity at 70.5 h: 26.4%

## O=C(COc1ccc2c(c1)CCC2)N1CCOCC1c1ncon1 (stereo not given)
  cytotoxicity at 70.5 h: -10.4%

## CNS(=O)(=O)c1cccc(CNc2ccc(C(F)(F)F)nn2)c1
  cytotoxicity at 70.5 h: -3.47%

## Cc1cccc(NC(=O)NCCCn2nc3ccccn3c2=O)c1C
  cytotoxicity at 70.5 h: -8.44%

## CC(O)CN1CCC(CNCc2cccc(OC(C)C)c2)CC1 (stereo not given)
  cytotoxicity at 70.5 h: 47%

## CC(O)CN1CCC(CNCc2cccc(Br)c2)CC1 (stereo not given)
  cytotoxicity at 70.5 h: 24.8%

## O=C(c1cccc(OC2CCCC2)c1)N1CCCC(n2cncn2)C1 (stereo not given)
  cytotoxicity at 70.5 h: 5.3%

## CCOc1ncccc1C(=O)N1CCCCC1c1nccs1 (stereo not given)
  cytotoxicity at 70.5 h: 2.5%

## CCc1nccn1C1CCCN(C(=O)c2cnn3ccc(C)nc23)C1 (stereo not given)
  cytotoxicity at 70.5 h: -9.27%

## Cc1cc(C)n(CC2CCCN2Cc2c(C)noc2C)n1 (stereo not given)
  cytotoxicity at 70.5 h: 34.3%

## C1CC(c2noc(C3CC3)n2)CN(Cc2noc(C3CC3)n2)C1 (stereo not given)
  cytotoxicity at 70.5 h: -7.62%

## CCc1noc(CN2CCCC2c2noc(C3CC3)n2)n1 (stereo not given)
  cytotoxicity at 70.5 h: 1.8%

## CCOCC(O)CN1CCN(C(=O)CC(C)C)CC1 (stereo not given)
  cytotoxicity at 70.5 h: -7.21%

## CN(C)C(=O)c1ccc(CNC(=O)NCCN(C)C2CCCC2)cc1
  cytotoxicity at 70.5 h: -13%

## CN(CCNC(=O)Nc1ccncc1)C1CCCCC1
  cytotoxicity at 70.5 h: 30.8%

## Cc1cc(C)n(CC2CN(Cc3nc(-c4ccoc4)no3)CCO2)n1 (stereo not given)
  cytotoxicity at 70.5 h: -15.7%

## Cc1nc(C)n(C2CCCN(C(=O)c3csc(C(C)C)n3)C2)n1 (stereo not given)
  cytotoxicity at 70.5 h: 23.9%

## CCc1cccc(OCC(=O)N2CCCC(n3cncn3)C2)c1 (stereo not given)
  cytotoxicity at 70.5 h: -9.33%

## CC(Cn1cccn1)NCc1csc(-c2cccs2)n1 (stereo not given)
  cytotoxicity at 70.5 h: -26%

## Cc1ccc(-c2nc(CN3CCc4nn(C)c(=O)cc4C3)co2)cc1
  cytotoxicity at 70.5 h: -17%

## O=C(NCCNc1ncccn1)N1CCSCC1
  cytotoxicity at 70.5 h: -11.7%

## O=C1CCc2cc(C(=O)NCc3ccc(-n4cncn4)nc3)ccc2N1
  cytotoxicity at 70.5 h: -0.0283%

## O=C(NCCNc1ccccn1)N1CCSCC1
  cytotoxicity at 70.5 h: -5.96%

## COc1cc(C)nc(N2CCN(C(=O)c3ccc[nH]3)CC2)n1
  cytotoxicity at 70.5 h: -1.4%

## COc1cc(C)nc(N2CCN(C(=O)c3ccc(Cl)o3)CC2)n1
  cytotoxicity at 70.5 h: -7.01%

## Cc1nn(C)c(C)c1C1CCCN1CC(=O)Nc1ccncc1 (stereo not given)
  cytotoxicity at 70.5 h: -7.94%

## CN(CCNC(=O)NCc1ccncc1)C1CCCC1
  cytotoxicity at 70.5 h: -18%

## Cc1ccc(-c2nc(CN3CCc4nn(C)c(=O)cc4C3)no2)cc1
  cytotoxicity at 70.5 h: -15.2%

## Cc1cnn(CCC(=O)N2CCCC(c3cc(C(N)=O)[nH]n3)C2)c1 (stereo not given)
  cytotoxicity at 70.5 h: -10.9%

## CCCOc1cc(CNC(=O)Nc2cccnc2N2CCCC2)ccn1
  cytotoxicity at 70.5 h: -24.2%

## c1cnnc(N2CCCC(NCc3cn4ccccc4n3)C2)c1 (stereo not given)
  cytotoxicity at 70.5 h: 15.8%

## c1ccc(-c2nc(CN3CCc4c(ncn4C4CC4)C3)cs2)cc1
  cytotoxicity at 70.5 h: 5.22%

## CN(Cc1cn2ccccc2n1)C1CCCN(c2cccnn2)C1 (stereo not given)
  cytotoxicity at 70.5 h: 12.5%

## Cc1ccc(-c2nc(CNCC3CN(C)CCO3)cs2)o1 (stereo not given)
  cytotoxicity at 70.5 h: 18.6%

## CS(=O)(=O)NCC1CCCN(C(=O)c2ccc(Cl)o2)C1 (stereo not given)
  cytotoxicity at 70.5 h: -8.13%

## CS(=O)(=O)NCC1CCCN(C(=O)c2cc3ccccc3o2)C1 (stereo not given)
  cytotoxicity at 70.5 h: -3.7%

## O=C(NCCOc1ccc2c(c1)OCO2)N1CCC1
  cytotoxicity at 70.5 h: -12.5%

## COCc1nc(C(=O)N2CCCC(n3cccn3)C2)cs1 (stereo not given)
  cytotoxicity at 70.5 h: -13.4%

## O=C(c1cc2cc(F)ccc2[nH]1)N1CCC(Nc2cccnn2)CC1
  cytotoxicity at 70.5 h: 24.4%

## Cc1ccn(-c2cccc(C(=O)N3CCCC(n4ccnc4C)C3)c2)n1 (stereo not given)
  cytotoxicity at 70.5 h: -11.3%

## CCc1nccn1C1CCCN(C(=O)c2csc(COC)n2)C1 (stereo not given)
  cytotoxicity at 70.5 h: -17.8%

## CCC(O)CN1CCN(C(=O)Cc2cc(Cl)ccc2OC)CC1 (stereo not given)
  cytotoxicity at 70.5 h: -8.81%

## O=C(Cc1n[nH]c2ccccc12)N1CCC(Nc2cccnn2)CC1
  cytotoxicity at 70.5 h: -2.23%

## CC(Cn1cccn1)NC(=O)N1CCN(Cc2cccnc2)CC1 (stereo not given)
  cytotoxicity at 70.5 h: -7.03%

## COc1ccc(Cl)cc1CC(=O)N1CCN(CCO)CC1
  cytotoxicity at 70.5 h: 12.5%

## Cc1nc(C)c(C(=O)OCCNc2ncccc2C#N)s1
  cytotoxicity at 70.5 h: -11.1%

## O=C(N1CCC(Nc2cccnn2)CC1)C1(c2ccc(F)cc2)CC1
  cytotoxicity at 70.5 h: -6.39%

## Cc1nc(C)n(CC2CCCN2Cc2ccn(-c3ccccc3)n2)n1 (stereo not given)
  cytotoxicity at 70.5 h: 3.67%

## CC(=O)N1CCCN(CC(C)(O)c2cccc(C(F)(F)F)c2)CC1 (stereo not given)
  cytotoxicity at 70.5 h: -3.98%

## c1ccc(-n2ccc(CN3CCCC3Cn3cccn3)n2)cc1 (stereo not given)
  cytotoxicity at 70.5 h: -13.6%

## Cc1noc(C(C)C)c1C(=O)NCCCOC(C)C
  cytotoxicity at 70.5 h: -4.85%

## CC(c1cccc(S(N)(=O)=O)c1)N(C)CCOc1ccccc1 (stereo not given)
  cytotoxicity at 70.5 h: -16.8%

## CCc1nc(C2CCCN2C(=O)CCn2cncn2)no1 (stereo not given)
  cytotoxicity at 70.5 h: -21.3%

## COc1c(C2CCCN2C(=O)c2cncnc2C)c(C)nn1C (stereo not given)
  cytotoxicity at 70.5 h: 39.1%

## O=S(=O)(CCCN1CCCC1Cn1cncn1)c1ccccc1 (stereo not given)
  cytotoxicity at 70.5 h: 11.6%

## CN1CCC/C1=N\S(=O)(=O)c1ccc(NC(=O)c2ccc(F)cc2)cc1
  cytotoxicity at 70.5 h: -4.6%

## Cc1nn(C)c(N(C)C)c1CNC1CCc2cc(F)ccc21 (stereo not given)
  cytotoxicity at 70.5 h: -4.67%

## COc1cc(CNC2CCCc3c2cnn3C)cc(OC)c1 (stereo not given)
  cytotoxicity at 70.5 h: -16.8%

## c1cnc(N2CCCC(NCc3cccc4c3OCCO4)C2)nc1 (stereo not given)
  cytotoxicity at 70.5 h: 3.71%

## Cc1nn(C)c(N2CCOCC2)c1CNC1CCc2cc(F)ccc21 (stereo not given)
  cytotoxicity at 70.5 h: -19.2%

Reference: ChEMBL document CHEMBL3507680, “University of Dundee, Gates Library screen for HepG2 cell viability”
